Where two headings read alike, the source gives them in different places. Where no end group is shown, it is not given here. [ ]: non-standard residue; d: D form. 2Nal = N[C@@H](Cc1ccc2ccccc2c1)C(=O)O; Cit = NC(=O)NCCC[C@H](N)C(=O)O; Api = NC1(C(=O)O)CCNCC1; Dab = NCC[C@H](N)C(=O)O; Iph = iodophenylalanine
What was measured:
HELA-654 cells = assay: Hela-654 eGFP assay (incucyte imaging, GFP positive cells, 72 h); type: cell-based; conditions: for EC50: 72 h
Method: HELA-654 cells were imaged at 72 hours with an incucyte and the number of GFP positive cells versus total cell counts were calculated with the incucyte image analysis software. Statistical analysis was conducted using a one-way analysis of variance (ANOVA) test with Dunnett's multiple comparison test. Bars represent mean±standard deviation (SD), with P<0.05 was considered to indicate statistical significance, (**** p<0.0001, *** […], ** p<0.01, * p<0.05).
HELA-654 cells were imaged at 72 hours with an incucyte and the number of GFP positive cells versus total cell counts were calculated with the incucyte image analysis software.

HeLa 654 cells [1] = assay: HeLa 654 eGFP assay (flow cytometry, mean eGFP fluorescence, 22 h); type: cell-based; conditions: for PMO delivery: eGFP fluorescence relative to PMO alone: 20 μM, HeLa 654 cells, flow cytometry; for PMO delivery at varying concentrations (mean eGFP fluorescence relative to vehicle): 1, 2.5, 5, 10, 25 or 50 μM; for PMO response (mean eGFP fluorescence relative to vehicle): 2.5 μM, segment-CXP1 conjugates
Method: Purified constructs were then tested using an activity-based readout in which nuclear delivery results in fluorescence. Briefly, HeLa cells stably transfected with an Enhanced Green Fluorescent Protein (eGFP) gene interrupted by a mutated intron of β-globin (IVS2-654) produce a non-fluorescent eGFP protein. As used herein, Hela-654 cells refers to the Hela cells transfected with an Enhanced Green Fluorescent Protein (eGFP) gene interrupted by a mutated intron of β-globin (IVS2-654) and Hela-654 eGFP Assay is used to refer to an Assay that uses the Hela-654 cells. Successful delivery of PMO IVS2-654 to the nucleus results in corrective splicing and eGFP synthesis.
The amount of PMO delivered to the nucleus is therefore correlated with eGFP fluorescence, quantified by flow cytometry. Activity was reported as mean fluorescence intensity (MFI) relative to PMO alone. This activity assay provides indirect information on how much active PMO is delivered to the nucleus. Relative efficiency of a PMO-CPP conjugate was characterized by comparing activity to internal concentration.
[…] 18 h prior to treatment, the cells were plated at a density of 5,000 cells per well in a 96-well plate in DMEM supplemented with 10% FBS and 1% penicillin-streptomycin.
For individual peptide testing, PPMOs were dissolved in phosphate buffered saline (PBS) without Ca^2+ or Mg^2+ at a concentration of 1 mM (determined by UV absorbance of the PMO) before being diluted in Dulbecco's modified eagle medium (DMEM). Cells were incubated at the designated concentrations in triplicate for 22 h at 37° C. and 5% CO2. Next, the treatment media was removed, and the cells were washed once before being incubated with 0.25% Trypsin-EDTA for 15 min at 37° C. and 5% CO2. Lifted cells were transferred to a V-bottom 96-well plate and washed once with PBS, before being resuspended in PBS containing 2% FBS and 2 μg/mL propidium iodide (PI). Flow cytometry analysis was carried out on a BD LSRII flow cytometer. Gates were applied to the data to ensure that cells that were positive for propidium iodide or had forward/side scatter readings that were sufficiently different from the main cell population were excluded. Each sample was capped at 5,000 gated events.
Analysis was conducted using Graphpad Prism 7 and FlowJo. For each sample, the mean fluorescence intensity (MFI) and the number of gated cells were measured. To report activity, triplicate MFI values were averaged and normalized to the PMO alone condition.

HeLa 654 cells [2] = assay: Lactate dehydrogenase (LDH) release assay in HeLa 654 cells; type: cell-based; conditions: 25 μM
Method: The media from the cells was analyzed for LDH release with an LDH assay and the percentage of LDH release was calculated relative to fully lysed cells.
Cytotoxicity assays were performed in HeLa 654 cells or TH-1 renal cells. TH-1 cells were maintained in DMEM supplemented with 10% (v/v) fetal bovine serum (FBS) and 1% (v/v) penicillin-streptomycin at 37° C. and 5% CO2H-1. Cells were plated at 5,000 cells/well in a 96-well plate 18-hours prior to treatment and treated with PMO-peptide compounds as described above. HeLa cell LDH assays were performed concurrently on the cells treated for Flow cytometry, so all plating and treatment protocols match those described above.
17 hours after cell treatment, the Promega CytoTox lysis solution was added to 3 wells of each plate as a fully lysed control (100% LDH-release). 18 hours after treatment, cell supernatant was transferred to a new 96-well plate for analysis of LDH release. To each well of the 96-well plate containing supernatant was added CytoTox 96 Reagent (Promega). […] Equal volume of Stop Solution was added to each well, mixed, and the absorbance of each well was measured at 490 nm. The measurement of vehicle-treated cells was subtracted from each measurement, and % LDH release was calculated as % cytotoxicity=100×Experimental LDH Release (OD490)/Maximum LDH Release (OD490).

eGFP-654 mice = assay: eGFP-654 mouse study: GFP fluorescence in tissue homogenates; type: in vivo; conditions: 20 mg/kg intravenous, tissues collected weekly for 8 weeks
Method: The tissues from a series of organs were homogenized and GFP fluorescence was measured with a spectrophotometer and normalized to tissue quantity (FIG. 9-17). Median effective dose (ED50) was also derived from the dose-response curve. PMO-CXP1 compound exposure was calculated with an enzyme-linked oligonucleotide hybridization assay (ELOHA). Briefly, the ELOHA assay is a two-step hybridization assay where the analyte is bound to both an immobilized capture probe and biotinylated detection probe. Streptavidin-AP-conjugate is added to the mixture and AttoPhos substrate is added to the system and incubated for 10 minutes. Stop solution is added and the plate is read on the spectrophotometer. The compound concentrations were determined from a standard curve. […] Compound efficacy and exposure were calculated in the quadriceps (FIGS. 9-10), heart (FIGS. 11-12), diaphragm (FIGS. 13-14), and kidney (FIGS. 15-16). The compound was also found to have efficacy for up to 56 days in vivo (FIG. 17).
PPMOs at 3 mg/kg were intravenously delivered to eGFP-654 mice. […] The tissues were homogenized and GFP fluorescence measurements were read for a fluorescence spectrophotometer and normalized to tissue quantity to measure efficacy (FIGS. 26-29). Compound efficacy and exposure were calculated in the quadriceps (FIG. 26), heart (FIG. 27), diaphragm (FIG. 28), and kidney (FIG. 29).

[3] = chimeric peptide PMO conjugates, read-out: EC50 (at 72 h)
[4] = CXP1 analogs (unnatural amino acids replaced), read-out: EC50 (72 h)

Asn-Phe-Lys-Gln-Nap-His-Ala-Gly-Dab-Arg-Lys-Trp-Lys-Lys (NFKQ[2Nal]HAG[Dab]RKWKK; also: PMO conjugate) [PMO-CXP2]
EC50 (HELA-654 cells; read-out: EC50 (at 72 h)): 11.5 µM | PMO delivery: eGFP fluorescence relative to PMO alone (HeLa 654 cells [1]): high levels of PMO delivery | PMO delivery at varying concentrations (mean eGFP fluorescence relative to vehicle) (HeLa 654 cells [1]; 22 h): dose-dependent delivery of PMO

Cit-Met-Phe-Gly-Pip-Dab-Dab-Lys-Ala-Pro-Lys-Trp-Lys-Lys ([Cit]MFG[Api][Dab][Dab]KAPKWKK; also: PMO conjugate) [PMO-CXP4]
EC50 (HELA-654 cells; read-out: EC50 (at 72 h)): 4.57 µM | PMO delivery: eGFP fluorescence relative to PMO alone (HeLa 654 cells [1]): high levels of PMO delivery | PMO delivery at varying concentrations (mean eGFP fluorescence relative to vehicle) (HeLa 654 cells [1]; 22 h): dose-dependent delivery of PMO

Iph-Gly-Arg-Gly-Pip-Lys-Gln-Lys-Thr-Ser-Iph-Gly-Arg-Gly-Pip-Lys-Trp-Lys-Lys ([Iph]GRG[Api]KQKTS[Iph]GRG[Api]KWKK; also: PMO conjugate) [SA-CXP1]
EC50 (HELA-654 cells; [3]): 1.57 µM | PMO response (mean eGFP fluorescence relative to vehicle) (HeLa 654 cells [1]; 22 h): highest PMO response compared to the other segment-CXP1 sequences | Toxicity: LDH release (HeLa 654 cells [2]): toxicity closest to the parent CXP1-CXP1 peptide

Lys-Gln-Lys-Thr-Ser-Iph-Gly-Arg-Gly-Pip-Lys-Trp-Lys-Lys (KQKTS[Iph]GRG[Api]KWKK-NH2; also: PMO conjugated via DBCO linker) [PMO-CXP1]
EC50 (HELA-654 cells; read-out: EC50 (at 72 h)): 7.08 µM | PMO delivery: eGFP fluorescence relative to PMO alone (HeLa 654 cells [1]): high levels of PMO delivery | PMO delivery at varying concentrations (mean eGFP fluorescence relative to vehicle) (HeLa 654 cells [1]; 22 h): dose-dependent delivery of PMO | Duration of efficacy in vivo (eGFP-654 mice): up to 56 days

Lys-Gln-Lys-Thr-Ser-Iph-Gly-Arg-Gly-Pip-Lys-Trp-Lys-Lys-Gly-Lys-Gln-Lys-Thr-Ser-Iph-Gly-Arg-Gly-Pip-Lys-Trp-Lys-Lys (KQKTS[Iph]GRG[Api]KWKKGKQKTS[Iph]GRG[Api]KWKK; not fully specified (C-terminus); printed as Lys-Gln-Lys-Thr-Ser-Iph-Gly-Arg-Gly-Pip-Lys-Trp-Lys-Lys-Gly-Lys-Gln-Lys-Thr-Ser-Iph-Gly-Arg-Gly-Pip-Lys-Trp-Lys-Lys; also: PMO IVS2-654 conjugate) [PMO-CXP1-CXP1]
EC50 (HELA-654 cells; [3]): 1.07 µM

Lys-Gln-Lys-Thr-Ser-Iph-Gly-Iph-Gly-Pip-Lys-Trp-Lys-Lys (KQKTS[Iph]G[Iph]G[Api]KWKK; not fully specified (C-terminus); printed as Lys-Gln-Lys-Thr-Ser-Iph-Gly-Iph-Gly-Pip-Lys-Trp-Lys-Lys; also: PMO conjugate) [PMO-CXP1S]
Percentage of GFP Positive Cells at 72 hours (30 μM) (HELA-654 cells; Iph scan, 30 μM of compound, 72 hours): 82.3%

Lys-Gln-Lys-Thr-Ser-Iph-Gly-Lys-Gly-Pip-Lys-Trp-Lys-Lys (KQKTS[Iph]GKG[Api]KWKK; not fully specified (C-terminus); printed as Lys-Gln-Lys-Thr-Ser-Iph-Gly-Lys-Gly-Pip-Lys-Trp-Lys-Lys; also: PMO conjugate) [PMO-CXP1AA]
EC50 (HELA-654 cells; [4]): 13.1 µM

Lys-Gln-Lys-Thr-Ser-Lys-Gln-Lys-Thr-Ser-Iph-Gly-Arg-Gly-Pip-Lys-Trp-Lys-Lys (KQKTSKQKTS[Iph]GRG[Api]KWKK; not fully specified (C-terminus); printed as Lys-Gln-Lys-Thr-Ser-Lys-Gln-Lys-Thr-Ser-Iph-Gly-Arg-Gly-Pip-Lys-Trp-Lys-Lys; also: PMO conjugate) [SC-CXP1]
EC50 (HELA-654 cells; [3]): 4.01 µM

Lys-Gln-Lys-Thr-Ser-Phe-Gly-Arg-Gly-Lys-Lys-Trp-Lys-Lys (KQKTSFGRGKKWKK; also: PMO conjugate) [PMO-CXP1Z]
EC50 (HELA-654 cells; [4]): 21.1 µM

Lys-Gln-Lys-Thr-Ser-Phe-Gly-Arg-Gly-Pip-Lys-Trp-Lys-Lys (KQKTSFGRG[Api]KWKK; not fully specified (C-terminus); printed as Lys-Gln-Lys-Thr-Ser-Phe-Gly-Arg-Gly-Pip-Lys-Trp-Lys-Lys; also: PMO conjugate) [PMO-CXP1X]
EC50 (HELA-654 cells; [4]): 17.4 µM

Lys-Thr-Ser-Iph-Gly-Arg-Lys-Gln-Lys-Thr-Ser-Iph-Gly-Arg-Gly-Pip-Lys-Trp-Lys-Lys (KTS[Iph]GRKQKTS[Iph]GRG[Api]KWKK; not fully specified (C-terminus); printed as Lys-Thr-Ser-Iph-Gly-Arg-Lys-Gln-Lys-Thr-Ser-Iph-Gly-Arg-Gly-Pip-Lys-Trp-Lys-Lys; also: PMO conjugate) [SB-CXP1]
EC50 (HELA-654 cells; [3]): 2.08 µM | PMO response (mean eGFP fluorescence relative to vehicle) (HeLa 654 cells [1]; 22 h): highest PMO response compared to the other segment-CXP1 sequences

Lys-Thr-Ser-Iph-Gly-Arg-Lys-Gln-Lys-Thr-Ser-Iph-Gly-Arg-Lys-Trp-Lys-Lys (KTS[Iph]GRKQKTS[Iph]GRKWKK; not fully specified (N-terminus, C-terminus); printed as Lys-Thr-Ser-Iph-Gly-Arg-Lys-Gln-Lys-Thr-Ser-Iph-Gly-Arg-Lys-Trp-Lys-Lys; also: PMO IVS2-654 conjugate) [CXD1A]
EC50 (HELA-654 cells; [3]): 3.35 µM | PMO delivery (mean eGFP fluorescence relative to vehicle) (HeLa 654 cells [1]; 1 μM, 22 h): high PMO delivery

Lys-Trp-Lys-Lys-Gln-Lys-Thr-Ser-Iph-Gly-Arg-Gly-Pip-Lys-Trp-Lys-Lys (KWKKQKTS[Iph]GRG[Api]KWKK; not fully specified (N-terminus, C-terminus); printed as Lys-Trp-Lys-Lys-Gln-Lys-Thr-Ser-Iph-Gly-Arg-Gly-Pip-Lys-Trp-Lys-Lys; also: PMO conjugate) [SD-CXP1]
EC50 (HELA-654 cells; [3]): 2.28 µM

[Dab]VARNN[Dab]TKGKWKK [PMO-CXP3]
EC50 (HELA-654 cells; read-out: EC50 (at 72 h)): 13.8 µM | PMO delivery: eGFP fluorescence relative to PMO alone (HeLa 654 cells [1]): high levels of PMO delivery | PMO delivery at varying concentrations (mean eGFP fluorescence relative to vehicle) (HeLa 654 cells [1]; 22 h): dose-dependent delivery of PMO

— patent US20250171776A1, “NON-CANONICAL CELL-PENETRATING PEPTIDES FOR ANTISENSE OLIGOMER DELIVERY” (priority 2023, published 2025)
